Results published in US20230285347A1, “Preterm Labour with Prostaglandin E2 Receptor Agonists” (IMPERIAL COLLEGE INNOVATIONS LIMITED, priority 2020, published 2023).
“Also recorded” adds a separate entry of the source.

Legend:
Type in all cases: cell-based
human FLAG-EP2 = molecular target: T1, human FLAG-EP2 (Homo sapiens, UniProt P43116); test: PGE2 release by ELISA in HEK 293 cells stably expressing EP2; conditions: HEK 293 EP2 cells; 6 hours; butaprost 10 μM, AH13205 10 μM, PGN9856i 100 nM; FIG. 4
T1 construct: FLAG; expressed in transfected cells
Protocol: COX-2 is an inflammatory mediator that drives PGE2 production. The inventors had previously shown EP2-dependent COX-2 release to be downstream of Ca2+ release in primary human myometrium and that 6-hour agonist treatment is necessary for increasing COX-2 levels and PGE2 secretion (Kandola et al, 2014). HEK 293 cells stably expressing human FLAG-EP2 were stimulated for 6 hours with an EP2 agonist (butaprost 10 μM, AH13205 10 μM or PGN9856i 100 nM) or DMSO. 1 mL media was collected from COX-2 experiments and immediately frozen at −80 degrees Celsius. […]

EP2 [1] = molecular target: T2, EP2 (Homo sapiens, UniProt P43116); test: Intracellular cAMP in primary human myocytes from term pregnant non-labouring myometrium; conditions: butaprost 10 μM, AH13205 10 μM, PGN9856i 100 nM, FIG. 5
T2 construct: primary human myocytes cultured from term pregnant, non-labouring, myometrium; endogenous in cells; host or cells: primary human myometrial cells (myocytes) cultured from pregnant myometrium
Protocol: (§1) In the myometrium EP2 is an important regulator of parturition. To assess if PGN9856i, butaprost and AH13205 induce similar second messenger profiles in the myometrium as HEK 293 cells, primary human myocytes cultured from term pregnant, non-labouring, myometrium, were treated with each ligand and intracellular cAMP, calcium and PGE2 release was measured.
Myometrial tissue was acquired at St. Mary's hospital, Queen Charlotte and Chelsea hospital and Charing Cross hospital, London. Tissue was obtained from women provided with informed written consent with the approval from the Riverside Research Ethics Committee (RREC 3357, 1997-5089, 19/LO/1657) and experiments were carried out under the committee's guidelines and recommendations. Tissues were obtained from term (38+0-40 weeks gestation) pregnant women undergoing elective caesarean from the upper margin of the incision made at the lower segment of the uterus, before or after the onset of labor. Tissues taken from women in early labour (<3 cm cervical dilation) or late labour (>3 cm cervical dilation) with/without induction with syntocinon, an oxytocin analogue. Tissue was only taken from uncomplicated, singleton pregnancies.
Tissue was stored at 4° C. in phosphate buffered saline until fine dissection with scalpels and dissociation at 37° C. for 1 hour in a sterile-filtered mix of Dulbecco's modified Eagle's medium (DMEM) (Sigma Aldrich)/Ham's F-12 Nutrient Mixture (Sigma Aldrich) and serum-free DMEM (Sigma Aldrich) (1:1 v/v) containing collagenase 1A (Sigma Aldrich)(1 mg/ml), collagenase X (Sigma Aldrich)(1 mg/ml) and bovine serum albumin (Sigma Aldrich) (2 mg/ml). […]
Confluent myometrial cells were treated with/without OT (100 nM) for 1 hour before 3 PBS washes and the addition of […] IBMX (3-isobutyl-1-methylxanthine) in PBS for 5 minutes at 37° C. […] Lysates were normalized to protein concentration determined by Coomassie (Bradford) Protein Assay Kit and analysed as per manufacturers' protocol (Cisbio Gαs dynamic assay) using a PHERAstar FSX.

EP2 [2] = molecular target: T2, EP2; test: PGE2 release by ELISA in primary myometrial cells; conditions: 6 hours, butaprost 10 μM, PGN9856i 100 nM, without OT, FIG. 7, FIG. 12
Description: Tissue culture media collected and used for ELISA. Data shown as mean±SEM from at least 3 independent experiments. One-way ANOVA with Dunnet's multiple comparison post-hoc test: *p<0.05, **p<0.01. PGN9856i is unable to elicit PGE2 release in primary myometrial cells.
as §1
Myometrial tissue was acquired at St. Mary's hospital, Queen Charlotte and Chelsea hospital and Charing Cross hospital, London. Tissue was obtained from women provided with informed written consent with the approval from the Riverside Research Ethics Committee (RREC 3357, 1997-5089, 19/LO/1657) and experiments were carried out under the committee's guidelines and recommendations. […]
Myometrial cells were treated for 6-hours with EP2 agonist (butaprost 10 μM, AH13205 10 μM or PGN9856i 100 nM) or DMSO with/without 1-hour OT (100 nM) pre-treatment. […] Samples were defrosted at room temperature and vortexed before quantification of IL-6 concentrations via ELISA as per manufacturer's instructions (Enzo Lifesciences).

EP2 [3] = molecular target: T2, EP2; test: cAMP in non-labouring myometrial cells with/without oxytocin pre-treatment; conditions: OT pre-treatment 1 hour, 100 nM; butaprost 10 μM, AH13205 10 μM, PGN9856i 100 nM; FIG. 10
Protocol: Myometrial cells with/without oxytocin (OT) pre-treatment (1 hour, 100 nM) were treated with IBMX (5 minutes, 0.5 mM) before 1 minute stimulation with IBMX with/without either DMSO, butaprost (10 μM), AH13205 (10 μM) or PGN9856i (100 nM). cAMP concentrations were normalised to protein. Each patient's data normalised to butaprost response and shown as mean±SEM, n=6. One-sample t-test: #p<0.05. ##p<0.01. One-way ANOVA with Sidak's multiple comparison post-hoc test: **p<0.01.
Confluent myometrial cells were treated with/without OT (100 nM) for 1 hour before 3 PBS washes and the addition of […] IBMX (3-isobutyl-1-methylxanthine) in PBS for 5 minutes at 37° C. This was exchanged for 0.5 μM IBMX in PBS plus either DMSO, butaprost (10 μM), AH13205 (10 μM) or PGN9856i (100 nM) for […]. Cells were lysed in Cisbio cAMP lysis buffer with 0.2% TritonX-100 and centrifuged for 15 minutes at 16,000 g. Lysates were normalized to protein concentration determined by Coomassie (Bradford) Protein Assay Kit and analysed as per manufacturers' protocol (Cisbio Gαs dynamic assay) using a PHERAstar FSX.

EP2 [4] = molecular target: T2, EP2; test: PGE2 release in myometrial cells with/without oxytocin pre-treatment; conditions: for effect of OT pre-treatment on ligand-induced PGE2 release: OT 1 hour, 100 nM, then ligand 6 hours, butaprost 10 μM, PGN9856i 100 nM, FIG. 12
Protocol: Myometrial cells stimulated with either DMSO, butaprost (10 μM), AH13205 (10 μM) or PGN9856i (100 nM) for 6 hours, with/without OT pre-treatment (1 hour, 100 nM). Tissue culture media collected and used for ELISA. PGE2 concentrations normalised to butaprost. Data shown as mean±SEM from at least 3 independent experiments. One-way ANOVA with Dunnett's multiple comparison post-hoc test. One-sample t-test: *p<0.05.
Myometrial cells stimulated with DMSO or PGN9856i (100 nM) for 6 hours, with/without OT pre-treatment (1 hour, 100 nM). Tissue culture media collected and used for ELISA. PGE2 concentrations normalised to vehicle. Data shown as mean±SEM from at least 3 independent experiments. Unpaired t-test: *p<0.05.
Myometrial cells were treated for 6-hours with EP2 agonist (butaprost 10 μM, AH13205 10 μM or PGN9856i 100 nM) or DMSO with/without 1-hour OT (100 nM) pre-treatment. 1 mL media was collected from COX-2 experiments and immediately frozen at −80 degrees Celsius. Samples were defrosted at room temperature and vortexed before quantification of IL-6 concentrations via ELISA as per manufacturer's instructions (Enzo Lifesciences).

T2 sequence (P43116 whole entry): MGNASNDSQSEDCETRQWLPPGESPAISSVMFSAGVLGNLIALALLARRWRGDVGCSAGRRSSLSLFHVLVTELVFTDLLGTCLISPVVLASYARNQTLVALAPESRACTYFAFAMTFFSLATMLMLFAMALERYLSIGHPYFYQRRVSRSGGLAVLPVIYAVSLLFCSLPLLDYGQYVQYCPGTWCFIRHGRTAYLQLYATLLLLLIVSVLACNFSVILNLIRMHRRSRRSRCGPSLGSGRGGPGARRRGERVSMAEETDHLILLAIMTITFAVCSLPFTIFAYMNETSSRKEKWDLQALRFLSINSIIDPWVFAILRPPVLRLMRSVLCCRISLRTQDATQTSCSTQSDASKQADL
T1 sequence (P43116 whole entry): as above

SMILES: CC(C)OC(=O)COc1cccc(NC(=O)c2cc(-c3cccc(F)c3)ccc2F)c1 [PGN9856i, propan-2-yl 2-(3-{3′,4-difluoro-[1,1′-biphenyl]-3-amido}phenoxy)acetate]
- PGE2 levels (human FLAG-EP2): unable to increase PGE2 levels over basal levels
- release of intracellular cAMP (EP2 [1]): able to elicit release of intracellular cAMP
- PGE2 release (EP2 [2]): unable to activate; also recorded: unable to cause PGE2 release
- effect of OTR activation on ligand's ability to increase intracellular cAMP (EP2 [3]): significantly reduced
- effect of OT pre-treatment on ligand-induced PGE2 release (EP2 [4]): unchanged by OT pre-treatment
- effect on OT-mediated PGE2 release (EP2 [4]; myometrial cells treated with OT (100 nM, 1 hour), then PGN9856i 100 nM for 6 hours, FIG. 13): significantly reduce OT-mediated PGE2 release

SMILES: CCCC1([C@H](O)C/C=C/[C@H]2[C@H](O)CC(=O)[C@@H]2CCCCCCC(=O)OC)CCC1 [butaprost]
- PGE2 levels (human FLAG-EP2): efficacious activators of the pathway
- release of intracellular cAMP (EP2 [1]): able to elicit release of intracellular cAMP
- PGE2 release (EP2 [2]): significantly enhanced PGE2 release
- effect of OTR activation on ligand's ability to increase intracellular cAMP (EP2 [3]): significantly reduced
- effect of OT pre-treatment on ligand-induced PGE2 release (EP2 [4]): significantly increased by OT
